Laboratory results from patent US11498920B2, “4-(1H-imidazol-5-yl)-1H-pyrrolo[2, 3-b] pyridines for use in the treatment of leukaemias, lymphomas and solid tumors” (MASARYKOVA UNIVERZITA, priority 2018, dated 2022).

What was measured:
Format in all cases: cell-based
[1] = system: Maver-1 cells (mantle cell lymphoma); assay: Cytotoxicity, TMRE flow cytometry viability, Maver-1 cells (Example II.1); details: Homo sapiens, Maver1, 24 hours, TMRE positive cells normalized to control, ratio to PF670462, <1 = higher cytotoxicity than PF670462, read-out: Viability of cells, Compound of formula I (100 μM), relative to PF670462 (100 μM), Maver-1 cells (mantle cell lymphoma)
[2] = system: primary CLL cells; assay: Cytotoxicity, TMRE flow cytometry viability, primary CLL cells (Example II.1); details: Homo sapiens, CLL cell, 6 hours, TMRE positive cells normalized to control, ratio to PF670462, <1 = higher cytotoxicity than PF670462, read-out: Viability of cells, Compound of formula I (100 μM), relative to PF670462 (100 μM), CLL primary cells
[3] = system: primary CLL; assay: Cytotoxicity on panel of cell lines, TMRE viability (Example II.2); details: Homo sapiens, 24 hours, mean, control = 1, read-out: cell viability relative to control, primary CLL
Method: (§1) The leukemia and lymphoma-derived cell lines [MEC-1 cell line (derived from chronic lymphocytic leukemia—CLL), Nalm-16 (acute lymphocytic leukemia—ALL), K562 (chronic myeloid leukemia—CML), HL-60 (acute myeloid leukemia—AML), Maver-1 and Mino (mantle cell lymphoma—MCL), BL-41 (Burkitt lymphoma—BL), WSU-NHL (follicular lymphoma—FL), SUDHL (diffuse large B-cell lymphoma—DLBCL)], primary CLL cells and nonmalignant control primary cells were cultured in suspension in flasks under the following conditions: RPMI 1640 medium (Hyclone) supplemented with 10% fetal bovine serum (FBS, Gibco) and 1% penicillin/streptomycin (Life Technologies), 37° C., 5% CO2 and 95% relative humidity, with optimal culture cell density 5×10^6 cells/mL in case of primary cells and 0.5-1×10^6 cells/mL in case of cell lines. The adherent cell lines [A375 (derived from malignant melanoma), MDA-MB-231 and MCF-7 (breast cancer), MIA-PA-CA and PANC1 (pancreatic cancer), PC3 (prostate cancer), OVCAR4 (ovarian cancer) and HEPG2 (hepatocellular carcinoma)] were cultured on plates under the same conditions using RPMI1640 or DMEM medium (Gibco) according to instructions provided by the distributor (DSMZ/ATCC).
(§2) The tested cell lines were incubated with inhibitors at 30 μM concentration or corresponding amount of solvent (DMSO, Sigma Aldrich) in standard culture conditions, seeded as 10^5 cells/500 μl per well in a 24-well plate. Experiments were performed in technical duplicates and 2-3 biological repetitions per cell line. Viability of cells was assessed after 24 hours.
(§3) Relative values are presented as a mean value, showing ratio to the effect of control. Relative value <1=lower viability than control condition.

[4] = system: SUDHL; assay: as above; details: 24 hours, mean, control = 1, read-out: cell viability relative to control, SUDHL (DLBCL)
Method: as §1, §2, §3

[5] = system: Mino; assay: as above; details: Homo sapiens, 24 hours, mean, control = 1, read-out: cell viability relative to control, Mino (MCL)
Method: as §1, §2, §3

[6] = system: MCF-7; assay: as above; details: Homo sapiens, MCF7, 24 hours, mean, control = 1, read-out: cell viability relative to control, MCF-7 (breast cancer)
Method: as §1, §2, §3

[7] = system: Nalm16; assay: as above; details: 24 hours, mean, control = 1, read-out: cell viability relative to control, Nalm16 (ALL)
Method: as §1, §2, §3

[8] = system: MEC-1; assay: as above; details: Homo sapiens, MEC1, 24 hours, mean, control = 1, read-out: cell viability relative to control, MEC-1 (CLL)
Method: as §1, §2, §3

[9] = system: Maver1; assay: as above; details: Homo sapiens, 24 hours, mean, control = 1, read-out: cell viability relative to control, Maver1 (MCL)
Method: as §1, §2, §3

[10] = system: BL-41; assay: as above; details: Homo sapiens, 24 hours, mean, control = 1, read-out: cell viability relative to control, BL-41 (BL)
Method: as §1, §2, §3

[11] = system: OVCAR4; assay: as above; details: Homo sapiens, OVCAR-4, 24 hours, mean, control = 1, read-out: cell viability relative to control, OVCAR4 (ovarian cancer)
Method: as §1, §2, §3

[12] = system: PANC1; assay: as above; details: Homo sapiens, PANC-1, 24 hours, mean, control = 1, read-out: cell viability relative to control, PANC1 (pancreatic cancer)
Method: as §1, §2, §3

[13] = system: A375; assay: as above; details: Homo sapiens, A-375, 24 hours, mean, control = 1, read-out: cell viability relative to control, A375 (melanoma)
Method: as §1, §2, §3

[14] = system: WSU-NHL; assay: as above; details: Homo sapiens, 24 hours, mean, control = 1, read-out: cell viability relative to control, WSU-NHL (FL)
Method: as §1, §2, §3

[15] = system: HEPG2; assay: as above; details: Homo sapiens, 24 hours, mean, control = 1, read-out: cell viability relative to control, HEPG2 (hepatocellular carcinoma)
Method: as §1, §2, §3

[16] = system: MIA-PA-CA; assay: as above; details: Homo sapiens, MIA PaCa-2, 24 hours, mean, control = 1, read-out: cell viability relative to control, MIA-PA-CA (pancreatic cancer)
Method: as §1, §2, §3

[17] = system: HL60; assay: as above; details: Homo sapiens, HL-60, 24 hours, mean, control = 1, read-out: cell viability relative to control, HL60 (AML)
Method: as §1, §2, §3

Row | Compound | viability at 100 µM [1] [%] | viability at 100 µM [2] [%] | viability at 30 µM [3] [%] | viability at 30 µM [4] [%] | viability at 30 µM [5] [%] | viability at 30 µM [6] [%] | viability at 30 µM [7] [%] | viability at 30 µM [8] [%] | viability at 30 µM [9] [%] | viability at 30 µM [10] [%] | viability at 30 µM [11] [%] | viability at 30 µM [12] [%] | viability at 30 µM [13] [%] | viability at 30 µM [14] [%] | viability at 30 µM [15] [%] | viability at 30 µM [16] [%] | viability at 30 µM [17] [%]
1 | Fc1ccc(-c2ncn(Cc3ccoc3)c2-c2ccnc3[nH]ccc23)cc1 [Preparative Example 23] | 46 | 37 | 68 | 67 | 65 | 31 | 20 | 84 | 71 | 57 | – | – | – | – | – | – | –
2 | COCCCn1cnc(-c2ccc(F)cc2)c1-c1ccnc2[nH]ccc12 [Preparative Example 24, 4-(4-(4-fluorophenyl)-1-(3-methoxypropyl)-1H-imidazol-5-yl)-1H-pyrrolo[2,3-b]pyridine] | – | 30 | 85 | – | 80 | – | 75 | – | 72 | 76 | – | – | – | – | – | – | –
3 | Fc1ccc(-c2ncn(C3CCNCC3)c2-c2ccnc3[nH]ccc23)cc1 [Preparative Example 37, 4-(4-(4-fluorophenyl)-1-(piperidin-4-yl)-1H-imidazol-5-yl)-1H-pyrrolo[2,3-b]pyridine] | – | 51 | 39 | 89 | – | – | 50 | – | – | 75 | 82 | 67 | – | – | – | – | –
4 | Fc1ccc(-c2ncn(-c3ccccc3)c2-c2ccnc3[nH]ccc23)cc1 [Preparative Example 47] | – | 78 | 81 | – | – | – | 57 | – | – | 73 | 76 | 83 | – | – | – | – | –
5 | c1cc(-c2c(C3CCCCC3)ncn2C2CCCCC2)c2cc[nH]c2n1 [Preparative Example 67, 4-(1,4-dicyclohexyl-1H-imidazol-5-yl)-1H-pyrrolo[2,3-b]pyridine] | 71 | 66 | – | – | 72 | – | 40 | – | 73 | 76 | – | – | 55 | 84 | – | – | –
6 | CS(=O)(=O)N[C@H]1CC[C@@H](n2cnc(-c3ccc(F)cc3)c2-c2ccnc3[nH]ccc23)CC1 [Preparative Example 74, N-(cis-4-(4-(4-fluorophenyl)-5-(1H-pyrrolo[2,3-b]pyridin-4-yl)-1H-imidazol-1-yl)cyclohexyl)methanesulfonamide] | 46 | 73 | – | – | – | 72 | 78 | – | 84 | – | – | – | – | – | – | – | –
7 | Fc1ccc(-c2ncn(Cc3ccco3)c2-c2ccnc3[nH]ccc23)cc1 [Preparative Example 81, 4-(4-(4-fluorophenyl)-1-(furan-2-ylmethyl)-1H-imidazol-5-yl)-1H-pyrrolo[2,3-b]pyridine] | 10 | 60 | 77 | – | 37 | 68 | – | – | 51 | – | – | – | – | 68 | 58 | – | –
8 | Cn1cnc(Cn2cnc(-c3ccc(F)cc3)c2-c2ccnc3[nH]ccc23)n1 [Preparative Example 106, 4-(4-(4-fluorophenyl)-1-((1-methyl-1H-1,2,4-triazol-3-yl)methyl)-1H-imidazol-5-yl)-1H-pyrrolo[2,3-b]pyridine] | 7 | – | – | – | 85 | 65 | – | – | 54 | – | 89 | – | 79 | 82 | 24 | 68 | –
9 | Fc1ccc(-c2ncn(C3CCCCC3)c2-c2ccnc3[nH]ccc23)cc1F [Preparative Example 173] | 1 | 2 | 62 | 3 | 1 | 52 | – | 9 | 0 | 5 | – | – | – | 16 | 58 | 74 | 77
